The values that follow are results of earlier work, collected in patent US11266626B2, “Reduction of ER-MAM-localized APP-C99 and methods of treating alzheimer's disease” (THE TRUSTEES OF COLUMBIA UNIVERSITY IN THE CITY OF NEW YORK, priority 2015, dated 2022).

The conditions of the series: Ghanbarabadi et al.; cited from earlier work.

On to `CC(C)=CCC/C(C)=C/COc1ccc2ccc(=O)oc2c1` [auraptene, 7-geranyloxycoumarin], for which the memory entry was “enhances memory”.
